Counter-ions that a name gives are not always drawn.
Legend:
[1] = Dry chemistry type chips: filter paper impregnated with mediator solution and dried on an electrode; details: mediator dried on cellulose or glass filter paper, dissolved by liquid sample
Description: In addition, the present inventors have attempted to prepare a dry chemistry type chips by impregnating a piece of cellulose filter paper or glass filter paper with a solution of HQ, PPD, TMPD or TEPD and drying the resulting piece on an electrode (by freeze-drying, vacuum drying, air-drying or the like) or arranging it on an electrode after drying so that the impregnated electron mediator can dissolve in a liquid sample at the time of measurement.

Glucose oxidase (GOD) = target: T1, Glucose oxidase (GOD) (Aspergillus niger, UniProt P13006); experiment: Electron transfer activity 1: GOD-glucose-compound, current at +300 mV; format: biochemical; details: +300 mV vs Ag/AgCl, pH 6.0
T1 construct: purchased Boehringer-Mannheim
T1 sequence (P13006 17-605): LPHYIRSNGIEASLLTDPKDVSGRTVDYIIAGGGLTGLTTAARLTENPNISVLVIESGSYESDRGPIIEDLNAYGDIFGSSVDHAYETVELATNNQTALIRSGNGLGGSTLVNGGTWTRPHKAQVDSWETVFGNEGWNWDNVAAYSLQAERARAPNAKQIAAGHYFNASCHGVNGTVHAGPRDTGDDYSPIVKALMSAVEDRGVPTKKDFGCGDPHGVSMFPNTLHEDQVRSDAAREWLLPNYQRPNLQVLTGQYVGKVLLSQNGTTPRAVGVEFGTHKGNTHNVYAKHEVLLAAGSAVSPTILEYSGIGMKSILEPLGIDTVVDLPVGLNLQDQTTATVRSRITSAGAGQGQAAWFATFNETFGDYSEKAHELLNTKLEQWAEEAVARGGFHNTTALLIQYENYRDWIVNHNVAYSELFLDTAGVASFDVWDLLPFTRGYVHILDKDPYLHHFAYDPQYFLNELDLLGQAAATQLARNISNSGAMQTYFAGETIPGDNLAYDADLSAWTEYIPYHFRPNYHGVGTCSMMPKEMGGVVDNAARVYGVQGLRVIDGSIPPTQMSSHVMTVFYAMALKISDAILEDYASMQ
Experimental: Measurement of electron transfer activities of TEPD, TCPD, THEPD, TDHPD, HTEPD, N,N'-BHPD, N,N-BHDPD, N,N'-BHDPD, and p-phenylenediamine derivatives having substituted amino group by reacting p-phenylenediamine with propyleneoxide--1
Glucose oxidase (GOD, manufactured by Boehringer-Mannheim) was dissolved in 0.1M phosphate buffer (pH 6.0) containing 0.1M NaCl to prepare 0M and 4.0×10^-4 M GOD solutions. Also, glucose (manufactured by Junsei Kagaku) was dissolved in the same buffer to prepare a 1.5M solution. In the same manner, each of the TEPD, TCPD, THEPD, TDHPD, HTEPD, N,N-BHDPD, N,N'-BHPD, N,N'-BHDPD, and p-phenylenediamine derivatives having substituted amino group by reacting p-phenylenediamine with propyleneoxide obtained in Synthesis Examples 1 to 9 was dissolved in the same buffer to prepare a 5.0×10^-3 M solution.
Each of these solutions was mixed in 0.1M phosphate buffer (pH 6.0) containing 0.1M NaCl in the following mixing ratio just before the measurement to prepare solutions of the following compositions A and B, and current was measured continuously in the presence (composition A) or absence (composition B) of GOD.
Using the same apparatus of Test Example 2, electric current was measured in the presence (composition A) or absence (composition B) of GOD for 10 minutes under application of potential of +300 mV (vs Ag/AgCl) to the working electrode.

[2] = target: T2, Horseradish peroxidase (HRPO) (Armoracia rusticana, UniProt P00433); experiment: Electron transfer activity 2: HRPO-hydrogen peroxide-compound, current at -80 mV or -150 mV; format: biochemical; details: -80 mV or -150 mV vs Ag/AgCl, pH 6.0
T2 construct: purchased TOYOBO
T2 sequence (P00433 31-338 limits assumed): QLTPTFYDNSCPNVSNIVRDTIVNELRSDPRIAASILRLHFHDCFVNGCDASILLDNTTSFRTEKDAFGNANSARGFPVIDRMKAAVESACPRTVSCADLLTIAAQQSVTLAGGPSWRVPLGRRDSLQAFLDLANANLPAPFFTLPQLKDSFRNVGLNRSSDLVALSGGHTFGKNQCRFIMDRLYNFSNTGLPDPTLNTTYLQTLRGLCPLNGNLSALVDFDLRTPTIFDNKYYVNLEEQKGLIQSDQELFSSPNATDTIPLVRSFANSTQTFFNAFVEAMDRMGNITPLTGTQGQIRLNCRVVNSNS
Experimental: Measurement of electron transfer activities of TCPD, THEPD, TDHPD, HTEPD, N,N-BHDPD, N,N'-BHPD, N,N'-BHDPD, and p-phenylenediamine derivatives having substituted amino group by reacting p-phenylenediamine with propyleneoxide--2
Horseradish peroxidase (HRPO, manufactured by TOYOBO) was dissolved in 0.1M phosphate buffer (pH 6.0) containing 0.1M NaCl to prepare 0M and 5.0×10^-7 M HRPO solutions. Also, hydrogen peroxide (manufactured by Wako Pure Chemical Industries) was dissolved in the same buffer to prepare a 1.0×10^-1 M solution. In the same manner, each of the TCPD, THEPD, TDHPD, HTEPD, N,N-BHDPD, N,N'-BHPD, N,N'-BHDPD, and p-phenylenediamine derivatives having substituted amino group by reacting p-phenylenediamine with propyleneoxide obtained in Synthesis Examples 1 to 9 was dissolved in the same buffer to prepare a 5.0×10^-3 M solution.
Each of these solutions was mixed in 0.1M phosphate buffer (pH 6.0) containing 0.1M NaCl in the following mixing ratio just before the measurement to prepare solutions of the following compositions A and B, and electric current was measured continuously in the presence (composition A) or absence (composition B) of HRPO.
Using the same apparatus of Test Example 2, electric current was measured in the presence (composition A) or absence (composition B) of HRPO for 5 or 10 minutes after application of potential of -80 mV (vs Ag/AgCl, the same shall apply hereinafter) in the case of TEPD, THEPD, and TDHPD, or -150 mV in the case of TCPD, HTEPD, N,N-BHDPD, N,N'-BHPD, N,N'-BHDPD, and p-phenylenediamine derivatives having substituted amino group by reacting p-phenylenediamine with propyleneoxide.

[3] = Current response of electron mediators in buffer solution and in the presence of blood, urine; details: for current response: in a buffer solution; for response in the presence of blood, urine and the like: interfering substances in blood
Description: (§1) Of these oxidation-reduction enzymes, glucose oxidase (GOD) is used in enzyme electrodes for the measurement of blood glucose level and horseradish peroxidase (HRPO) is used as a label enzyme in specific binding assays such as DNA hybridization, immunoassay and the like. […] However, these electron mediators were not able to show stable and reproducible response in the presence of blood, urine and the like because of the interfering substances contained therein.

[4] = Measurement of vapor pressures (gas flow method); format: physicochemical; details: for vapor pressure lower than that of TEPD / vapor pressure: at 25° C.; for vapor pressure: gas flow method; for property in drying (freeze-drying, vacuum drying, air-drying) and stability of dried states: compared with PPD, TMPD and TEPD, concluded from vapor pressures
Experimental: Measurement of vapor pressures of p-phenylenediamine(PPD), N,N,N',N'-tetramethyl-p-phenylenediamine (TMPD), TEPD, TCPD, THEPD and TDHPD
The PPD(manufactured by Wakoh Junyaku K.K), TMPD (manufactured by Tokyo Kasei K.K), further, TEPD, TCPD, THEPD and TDHPO obtained in the course of the procedures of Synthesis Examples 1 to 4 were checked for their vapor pressures.
Vapor densities (amount of evaporation/volume) of the solid samples (PPD, TMPD, TEPD, TCPD, THEPD and TDHPD) were measured by contacting each sample heated to a predetermined temperature with a stream of carrier gas (nitrogen) and saturating the sample with vapor, and vapor pressures of TEPD and THEPD were calculated from the data on an assumption that the vapor follows the law of ideal gas (gas flow method). The vapor density was calculated by measuring evaporation rate (loss rate) of each sample using an electric balance, and the carrier gas flow rate using a flow meter.
The vapor pressure was calculated from the vapor density based on the following formula.
In the above formula, P represents vapor pressure (mmHg), k represents evaporation rate (mg/min), v represents carrier gas flow rate (ml/min), k/v represents vapor density (mg/ml), M represents molecular weight of each sample, π represents pressure of the system (mmHg) and V represents molar volume of carrier gas (l/mol).

glucose oxidase = glucose oxidase (Aspergillus niger, UniProt P13006); experiment: Current response in a buffer with electron mediator (inventors' experiments); format: biochemical; details: compared with conventional electron mediators (ferrocene derivatives, inorganic ions, metal complexes)
Sequence of glucose oxidase (P13006 17-605): as the sequence (P13006 17-605) above
Description: as §1

horseradish peroxidase = target: T3, horseradish peroxidase (Armoracia rusticana, UniProt P00433); experiment: as above; format: biochemical; details: compared with conventional electron mediators (ferrocene derivatives, inorganic ions, metal complexes)
T3 sequence (P00433 31-338 limits assumed): T2 sequence (P00433 31-338 limits assumed)
Description: as §1

Compound | current response and characteristics of dry chemistry type chips [1] | function as electron mediator between GOD and the electrode (Glucose oxidase (GOD)) | function as electron mediator between HRPO and the electrode [2] | also measured
Oc1ccc(O)cc1 [HQ, hydroquinone] | low current response and extremely poor characteristics |  |  | 
CCN(CC)c1ccc(N(CC)CCO)cc1 [HTEPD, N-2'-hydroxyethyl-,N,N',N'-triethyl-p-phenylenediamine dihydrochloride] |  | function as a reversible electron mediator between GOD and the electrode | function as a reversible electron mediator between HRPO and the electrode | 
CCN(CCO)c1ccc(N(CC)CCO)cc1.Cl.Cl [N,N'-BHDPD, N,N'-bis-(2'-hydroxyethyl)-N,N'-diethyl-p-phenylenediamine dihydrochloride] |  | function as a reversible electron mediator between GOD and the electrode | function as a reversible electron mediator between HRPO and the electrode | 
OCCNc1ccc(NCCO)cc1 [N,N'-BHPD, N,N'-bis-(2'-hydroxyethyl)-p-phenylenediamine] |  | function as a reversible electron mediator between GOD and the electrode | function as a reversible electron mediator between HRPO and the electrode | 
CCN(CC)c1ccc(N(CCO)CCO)cc1.Cl.Cl [N,N-BHDPD, N,N-bis-(2'-hydroxyethyl)-N',N'-diethyl-p-phenylenediamine dihydrochloride] |  | function as a reversible electron mediator between GOD and the electrode | function as a reversible electron mediator between HRPO and the electrode | 
Nc1ccc(N)cc1 [PPD, p-phenylenediamine] | low current response and extremely poor characteristics |  |  | current response [3]: excellent current response; response in the presence of blood, urine and the like [3]: interference
O=C(O)CN(CC(=O)O)c1ccc(N(CC(=O)O)CC(=O)O)cc1 [TCPD, N,N,N',N'-tetrakiscarboxymethyl-p-phenylenediamine] |  | function as a reversible electron mediator between GOD and the electrode | function as a reversible electron mediator between HRPO and the electrode | vapor pressure lower than that of TEPD [4]: about 50,000 times; vapor pressure [4]: 8.7×10^-9 mmHg; property in drying (freeze-drying, vacuum drying, air-drying) and stability of dried states [4]: superior to those of PPD, TMPD and TEPD
Cl.Cl.OCC(O)CN(CC(O)CO)c1ccc(N(CC(O)CO)CC(O)CO)cc1 (stereo not drawn) [TDHPD, N,N,N',N'-tetrakis-(2',3'-dihydroxypropyl)-p-phenylenediamine dihydrochloride] |  | function as a reversible electron mediator between GOD and the electrode | function as a reversible electron mediator between HRPO and the electrode | vapor pressure lower than that of TEPD [4]: about 420,000 times; vapor pressure [4]: 1.0×10^-9 mmHg; property in drying (freeze-drying, vacuum drying, air-drying) and stability of dried states [4]: superior to those of PPD, TMPD and TEPD
CN(C)c1ccc(N(C)C)cc1 [TMPD, N,N,N',N'-tetramethyl-p-phenylenediamine] | low current response and extremely poor characteristics |  |  | current response [3]: excellent current response; response in the presence of blood, urine and the like [3]: interference
hydroquinone (HQ)/benzoquinone (BQ) |  |  |  | current response (glucose oxidase): superior current response; current response (horseradish peroxidase): superior current response
